# From patent EP4623911A1, “PI4KB INHIBITORS FOR THE TREATMENT OF FATTY LIVER DISEASE” (ETH Zurich, priority 2024, dated 2025)
# Test system: ATGL
# Test: ATGL protein quantification via immunoblot in HEK293T cell type
# Format: cell-based, human
# Conditions: Golgi Ptdlns4P depleted by UCB9608, then glucose deprivation
# Experimental: HEK293T and HEK293-AAV cell types were cultured in DMEM (high glucose) with 10% FBS and 1% Pen/Strep. HEK293-AAV cell type was used for imaging whereas HEK293T cells were adopted for the rest of the work. To overexpress EGFP-P4M, EGFP-SACM1L, EGFP-SACM1LK2A, ATGL-FLAG, ATGL-HA, ATGLK0-HA and FBXW8-FLAG in the HEK cells, Lipofectamine 2000 was used to deliver these plasmids for 24 h expression at 60-80% cell confluence according to the manufacturer's instructions, followed by specific treatments based on experimental designs. To image LDs abundance, HEK293-AAV cell type was induced by 200 µM oleic acid (OA, 01008 from Sigma) conjugated to bovine serum albumin (BSA, A6003 from Sigma) to generate LDs for 24 h prior to 4% PFA fixation. Afterwards, cells were stained by BODIPY 493/503 and Hoechst 33342 for LDs and nuclei labelling, respectively. In other conditions, HEK cells were not treated with OA containing medium. […]
# Adipose depots, liver pieces, differentiated iBAs, HepG2, HEK293T and HEK293-AAV cell types were homogenized in RIPA buffer (50 mM Tris-HCl pH 7.4, 150 mM NaCl, 2 mM EDTA, 1.0% Triton X100, 0.5% sodium deoxycholate) with protease inhibitors (Complete, Roche) and phosphatase inhibitors (Halt phosphatase inhibitor cocktail, ThermoFisher). […] The concentration of WCE was determined by DC Protein Assay (Bio-Rad). […]
compound,measurement,value
COc1ccc(NC(=O)N2CCN(c3nc(N)nc4c3cnn4C)[C@@H](C)C2)c(C)c1 [UCB9608],ATGL response to glucose deprivation,loss of ATGL regulation
